# According to patent publication US10358405B2, “Myricanol derivatives and uses thereof for treatment of neurodegenerative diseases” (UNIVERSITY OF SOUTH FLORIDA, priority 2012, dated 2019):
# Assays:
# [1] = test system: tau; experiment: Tau level reduction in HeLa cells stably transfected with tau treated with myricanol derivatives; format: cell-based; conditions: for reduction of levels of tau proteins: summary statement
# Description: To assess the effects of the aqueous bayberry extract on overexpressed and endogenous tau levels, HeLa cells stably transfected with tau were treated with the myricanol derivatives.
# [2] = test system: tau; experiment: Tau-reducing-guided fractionation study of Myrica cerifera (tau destabilizer activity); format: cell-based; conditions: read-out: IC50 as tau destabilizer agent
# Description: The bayberry root-bark powder (5×1 kg) was extracted with 5×2 L of toluene under agitation in a (5×) flask protected from light (3×24 h). The filtrate was concentrated and gave 58 g of extract. The toluene extract was purified using silica gel MPLC, eluting with a gradient of 0 to 40% ethyl acetate/hexanes to yield 27 g of (+)-aR,11S-myricanol [α]D^21=48.2 (c=1.1, Chloroform).
# [3] = Table 1, tau-reducing activity, result in words
# [4] = HeLa cells stably transfected with tau
Compound,"Results [1, 3]",IC50 [2] [µM],"Results [1, 4]",reduction of levels of tau proteins [1],"reduction of protein tau levels, time-dependent bioassay ([1]; treatment of HeLa cells for 24 hours)","tau-reducing activity, dose-dependent bioassay ([1]; concentration of 20 μg/mL)"
"COc1c2cc(c(O)c1OC)CCCC[C@H](O)CCc1ccc(O)c-2c1 [Compound 1, Myricanol]",moderate activity,35,,,,
"COc1c2cc(c(O)c1OC)CCCC/C=C/Cc1ccc(O)c-2c1 [Compound 19, Myricacene B (trans)]",active,,active,,,
"COc1c2cc(c(O)c1OC)CCC/C=C/CCc1ccc(O)c-2c1 [Compound 18, Myricacene A (trans)]",active,,active,,,
COc1cc2c(c(O)c1OC)CCCC1CCCc3ccc(O)c-2c31 (stereo not drawn) [Compound 23],very active,,very active,potently reduce levels of tau proteins,potently reduces protein tau levels,
"COc1c2cc(c(O)c1OC)CCCC/C=C\Cc1ccc(O)c-2c1 [Compound 22, Myricacene B (cis)]",active,,active,potently reduce levels of tau proteins,,potent tau-reducing compound
"COc1c2cc(c(O)c1OC)CCC/C=C\CCc1ccc(O)c-2c1 [Compound 21, Myricacene A (cis)]",moderately active,,moderately active,,,
"O=C(/C=C/c1ccc(O)cc1)CC(=O)/C=C/c1ccc(O)cc1 [Compound 10, Bisdemethoxycurcumin]",active,,active,,,
COc1c2cc(c(O)c1OC)CCCCC1CCc3ccc(O)c-2c31 (stereo not drawn) [Compound 24],active,,active,,,
Demethoxycurcumin [Compound 9],active,,active,,,
"CCCCCCCCC[C@H](O)CC(=O)CCc1ccc(O)c(OC)c1 [Compound 11, [10]-Gingerol]",Active,,active,,,
